Measurements published in article PMC8151276, “An Integrated Approach toward NanoBRET Tracers for Analysis of GPCR Ligand Engagement” (Molecules, 2021).

What was measured:
Assay type in all cases: binding
EDNRA = molecular target: T1, EDNRA (Homo sapiens, UniProt P25101); assay: NanoBRET screen HiBiT-EDNRA in HEK293
T1 construct: purchased Promega (in-house HiBiT-GPCR construct library, NanoBRET)
T1 sequence (P25101 21-427): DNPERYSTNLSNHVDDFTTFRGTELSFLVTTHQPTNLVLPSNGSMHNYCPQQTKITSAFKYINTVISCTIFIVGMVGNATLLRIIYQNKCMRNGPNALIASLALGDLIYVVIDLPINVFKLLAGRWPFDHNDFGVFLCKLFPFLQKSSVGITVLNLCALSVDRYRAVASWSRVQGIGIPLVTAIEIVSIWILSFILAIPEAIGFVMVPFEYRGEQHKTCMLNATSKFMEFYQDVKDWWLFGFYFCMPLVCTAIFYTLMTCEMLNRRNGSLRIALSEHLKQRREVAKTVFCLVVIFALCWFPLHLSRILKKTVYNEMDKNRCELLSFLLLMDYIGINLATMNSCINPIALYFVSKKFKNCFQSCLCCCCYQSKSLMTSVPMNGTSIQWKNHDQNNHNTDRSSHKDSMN
Procedure: (§1) Each tracer candidate was screened across the entire library of HiBiT-GPCR constructs using NanoBRET as the detection modality. As depicted in Figure 4A, the specificity of interactions was evaluated through decrease in BRET due to competitive displacement of a bound tracer by excess parental compound. Each tracer was analyzed for binding to each HiBiT-GPCR fusion in the absence and in the presence of competing parental compound. Briefly, HEK293 cells were transfected with HiBiT-GPCR constructs diluted into promoterless DNA to reduce expression and maximize translocation to the cell surface. Each tracer candidate was then screened at concentrations of 1 μM and 0.1 μM across cells expressing these fusions. Cells were treated for 1.5 h with tracer either alone or in the presence of 20 μM competing parental compound (i.e., control). BRET was measured upon addition of purified LgBiT and subsequent complementation with HiBiT genetically fused to a GPCR. The specificity of interactions was assessed through a decrease in BRET signal due to competitive displacement of the bound tracer. To further gauge the robustness of these interactions, the fold response over the control (i.e., BRETtracer/BRETcontrol) was calculated. We chose a 1.5-fold response, which translates to ≥7-fold signal over noise as the minimal threshold required to score an interaction as positive. […]. Below we highlight the screening results obtained for our exemplary fluorescent tracers based on Clozapine, Amitriptyline and AZD1283.
(§2) HiBiT-GPCR DNA constructs were diluted in 10 mM Tris pH 8 to a final concentration of 0.01 μg/μL, arrayed in 96-well plates and stored at −20 °C. For transfection, HEK293 cells were suspended in Opti-MEM (without phenol red) supplemented with 2% fetal bovine serum (Seradigm) and 100 units/mL penicillin–streptomycin (Gibco) at a final concentration of 220,000 cells/mL and dispensed into white 96-well plates at 90 μL/well. Subsequent transfections and screens were carried using an Agilent Bravo Automated Liquid Handling Platform. First, the 96-well HiBiT DNA arrays were diluted 25-fold in Opti-MEM (without serum or phenol red) to a final concentration of 0.0004 μg/μL and 20 μL of the diluted DNAs were transferred into new 96-well plates. Next, promoterless carrier DNA (1 μg/μL) was diluted 25-fold (0.04 μg/μL) and then dispensed into the diluted arrays at 20 μL/well. Following brief mixing, Viafect transfection reagent (Promega) diluted 16-fold into Opti-MEM was dispensed into the plates at 40 μL/well. After mixing by pipetting, plates were incubated for 10 min on the pipetting station deck. The DNA-transfection reagent complexes were then added to plates containing cells. To facilitate the screen, 10 μL of DNA-transfection reagent complexes were added in duplicates to the top 4 and bottom 4 rows, resulting in two identical 48-well arrays per plate. Plates with transfected cells were incubated for 18–20 h at 37 °C/5% CO2. A screen of each tracer across the entire library using two different concentrations requires duplicate plates of transfected cells. Depending on the number of tracers being screened, transfections can be scaled up using the same ratios. The next day, for each tracer, four 20× screening solutions in tracer dilution buffer (Promega) were prepared: two duplicates at final concentration of 20 μM and two duplicates at a final concentration of 2 μM. A competing unmodified compound was added to one of each duplicate at a final concentration of 400 μM. The four resulting solutions were diluted 4-fold in Opti-MEM without serum or phenol red to generate 5× solutions (5 µM and 0.5 µM tracer +/− 100 μM competing compound). To screen the library, a BioTek MultiFlo FX liquid dispenser was used to dispense 22.5 µL of tracer solution to the top 4 rows and 22.5 µL tracer + competing compound solution to the 4 bottom rows. Plates were briefly mixed on an orbital shaker and incubated for 1.5 h at room temperature. […]

TBXA2R = molecular target: T2, TBXA2R (Homo sapiens, UniProt P21731); assay: NanoBRET screen HiBiT-TBXA2R in HEK293
T2 construct: purchased Promega (in-house HiBiT-GPCR construct library, NanoBRET)
T2 sequence (P21731 1-343): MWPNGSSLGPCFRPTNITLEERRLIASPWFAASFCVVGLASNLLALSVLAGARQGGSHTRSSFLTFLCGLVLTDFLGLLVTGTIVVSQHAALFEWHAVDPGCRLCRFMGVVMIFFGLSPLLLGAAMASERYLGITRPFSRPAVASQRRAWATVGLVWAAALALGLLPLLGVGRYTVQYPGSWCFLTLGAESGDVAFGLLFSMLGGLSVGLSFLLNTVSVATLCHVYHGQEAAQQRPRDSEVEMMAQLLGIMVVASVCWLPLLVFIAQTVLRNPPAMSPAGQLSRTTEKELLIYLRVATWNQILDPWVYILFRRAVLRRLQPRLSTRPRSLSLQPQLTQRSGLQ
Procedure: as §1, §2

FZD4 = molecular target: T3, FZD4 (Homo sapiens, UniProt Q9ULV1); assay: NanoBRET screen HiBiT-FZD4 in HEK293
T3 construct: purchased Promega (in-house HiBiT-GPCR construct library, NanoBRET)
T3 sequence (Q9ULV1 37-537): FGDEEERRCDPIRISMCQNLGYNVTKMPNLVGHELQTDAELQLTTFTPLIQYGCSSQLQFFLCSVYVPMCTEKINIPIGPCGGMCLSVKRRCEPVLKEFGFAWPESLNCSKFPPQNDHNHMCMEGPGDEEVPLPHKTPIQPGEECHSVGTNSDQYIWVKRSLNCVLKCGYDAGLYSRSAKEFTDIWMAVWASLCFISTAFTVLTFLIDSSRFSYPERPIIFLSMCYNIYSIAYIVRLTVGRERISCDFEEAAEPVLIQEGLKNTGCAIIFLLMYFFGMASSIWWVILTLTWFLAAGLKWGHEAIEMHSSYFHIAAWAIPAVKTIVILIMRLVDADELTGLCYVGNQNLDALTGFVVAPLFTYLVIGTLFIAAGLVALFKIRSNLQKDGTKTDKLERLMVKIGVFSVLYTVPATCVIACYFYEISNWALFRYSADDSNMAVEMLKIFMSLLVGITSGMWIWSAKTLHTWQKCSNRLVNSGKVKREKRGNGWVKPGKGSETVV
Procedure: as §1, §2

## O=C(CCOCCOCCOCCOCCNC(=O)CCc1ccc2n1[B-](F)(F)[N+]1=C(c3ccc[nH]3)C=CC1=C2)NCCCN1CCN(C2=Nc3ccccc3Oc3ccc(Cl)cc32)CC1 [Loxapine-a-2-NB590]
EDNRA; EDNRA, tracer 0.1μM
  NanoBRET Fold Response: 1.05
EDNRA; EDNRA, tracer 1μM
  NanoBRET Fold Response: 0.85
TBXA2R; TBXA2R, tracer 0.1μM
  NanoBRET Fold Response: 0.99
TBXA2R; TBXA2R, tracer 1μM
  NanoBRET Fold Response: 1.03
FZD4; FZD4, tracer 0.1μM
  NanoBRET Fold Response: 0.98
FZD4; FZD4, tracer 1μM
  NanoBRET Fold Response: 0.89

## CCCn1c(=O)c2[nH]c(-c3ccc(OCC(=O)NCCNC(=O)CCOCCNC(=O)c4ccc(CNC(=O)CCc5ccc6n5[B-](F)(F)[N+]5=C(c7ccc[nH]7)C=CC5=C6)cc4)cc3)nc2n(CCC)c1=O [XAC-3-NB590]
EDNRA; EDNRA, tracer 0.1μM
  NanoBRET Fold Response: 1.12
EDNRA; EDNRA, tracer 1μM
  NanoBRET Fold Response: 1.15
TBXA2R; TBXA2R, tracer 0.1μM
  NanoBRET Fold Response: 1.04
TBXA2R; TBXA2R, tracer 1μM
  NanoBRET Fold Response: 1.04
FZD4; FZD4, tracer 0.1μM
  NanoBRET Fold Response: 1.15
FZD4; FZD4, tracer 1μM
  NanoBRET Fold Response: 1.12

## CN(C)CCC=C1c2ccccc2CCc2ccc(C(=O)NCCNC(=O)CCOCCOCCOCCOCCNC(=O)CCc3ccc4n3[B-](F)(F)[N+]3=C(c5ccc[nH]5)C=CC3=C4)cc21 [Amitriptyline-a-2-NB590]
EDNRA; tracer at 0.1μM
  NanoBRET Fold Response: 0.99
EDNRA; tracer at 1μM
  NanoBRET Fold Response: 0.99
FZD4; tracer at 0.1μM
  NanoBRET Fold Response: 1.01
FZD4; tracer at 1μM
  NanoBRET Fold Response: 1.01

## COc1ccccc1N1CCN(CCCCN2C(=O)c3ccc(CNC(=O)CCOCCOCCOCCOCCNC(=O)CCc4ccc5n4[B-](F)(F)[N+]4=C(c6ccc[nH]6)C=CC4=C5)cc3C2=O)CC1 [NAN-190-2-NB590]
EDNRA; EDNRA, tracer 0.1μM
  NanoBRET Fold Response: 1.02
EDNRA; EDNRA, tracer 1μM
  NanoBRET Fold Response: 1.05
TBXA2R; TBXA2R, tracer 0.1μM
  NanoBRET Fold Response: 1.07
TBXA2R; TBXA2R, tracer 1μM
  NanoBRET Fold Response: 1.06
FZD4; FZD4, tracer 0.1μM
  NanoBRET Fold Response: 1.03
FZD4; FZD4, tracer 1μM
  NanoBRET Fold Response: 1.08

## O=C(CCc1ccc2n1[B-](F)(F)[N+]1=C(c3ccc[nH]3)C=CC1=C2)NCc1ccc(C(=O)NCCOCCOCCNCC(O)COc2cccc3ccccc23)cc1 (stereo not drawn) [Propranolol-3-NB590]
EDNRA; EDNRA, 0.1μM
  NanoBRET Fold Response: 0.97
EDNRA; EDNRA, 1μM
  NanoBRET Fold Response: 1.03
TBXA2R; TBXA2R, 0.1μM
  NanoBRET Fold Response: 0.97
TBXA2R; TBXA2R, 1μM
  NanoBRET Fold Response: 1.09
FZD4; FZD4, 0.1μM
  NanoBRET Fold Response: 1.09
FZD4; FZD4, 1μM
  NanoBRET Fold Response: 1.07

## COc1ccccc1N1CCN(CCCCN2C(=O)c3ccc(CNC(=O)CCOCCNC(=O)c4ccc(CNC(=O)CCc5ccc6n5[B-](F)(F)[N+]5=C(c7ccc[nH]7)C=CC5=C6)cc4)cc3C2=O)CC1 [NAN-190-3-NB590]
EDNRA; EDNRA, tracer 0.1μM
  NanoBRET Fold Response: 1.01
EDNRA; EDNRA, tracer 1μM
  NanoBRET Fold Response: 1.21
TBXA2R; TBXA2R, tracer 0.1μM
  NanoBRET Fold Response: 1.08
TBXA2R; TBXA2R, tracer 1μM
  NanoBRET Fold Response: 1.15
FZD4; FZD4, tracer 0.1μM
  NanoBRET Fold Response: 1.03
FZD4; FZD4, tracer 1μM
  NanoBRET Fold Response: 1.38

## O=C(CCc1ccc2n1[B-](F)(F)[N+]1=C(c3ccc[nH]3)C=CC1=C2)NCc1ccc(C(=O)NCCOCCC(=O)N[C@@H]2CC[C@@]3(O)[C@H]4Cc5ccc(O)c6c5[C@@]3(CCN4CC3CC3)[C@H]2O6)cc1 [Naltrexone-3-NB590]
EDNRA; EDNRA, tracer 0.1μM
  NanoBRET Fold Response: 1.00
EDNRA; EDNRA, tracer 1μM
  NanoBRET Fold Response: 0.98
TBXA2R; TBXA2R, tracer 0.1μM
  NanoBRET Fold Response: 1.24
TBXA2R; TBXA2R, tracer 1μM
  NanoBRET Fold Response: 1.13
FZD4; FZD4, tracer 0.1μM
  NanoBRET Fold Response: 0.89
FZD4; FZD4, tracer 1μM
  NanoBRET Fold Response: 1.14

## CCOC(=O)c1cc(C#N)c(N2CCC(C(=O)NS(=O)(=O)Cc3ccccc3/C=C/C(=O)NCCNC(=O)CCc3ccc4n3[B-](F)(F)[N+]3=C(c5ccc[nH]5)C=CC3=C4)CC2)nc1C [AZD1283-1-NB590]
EDNRA; EDNRA, 0.1μM
  NanoBRET Fold Response: 1.01
EDNRA; EDNRA, 1μM
  NanoBRET Fold Response: 1.02
TBXA2R; TBXA2R, 0.1μM
  NanoBRET Fold Response: 1.04
TBXA2R; TBXA2R, 1μM
  NanoBRET Fold Response: 1.19
FZD4; FZD4, 0.1μM
  NanoBRET Fold Response: 1.03
FZD4; FZD4, 1μM
  NanoBRET Fold Response: 1.03

## COc1ccc2[nH]c(-c3ccc(CNC(=O)CCOCCOCCOCCOCCNC(=O)CCc4ccc5n4[B-](F)(F)[N+]4=C(c6ccc[nH]6)C=CC4=C5)cc3)c(CCNC(C)=O)c2n1 [AzomelatoninICO9-2-NB590]
EDNRA; 0.1μM tracer
  NanoBRET Fold Response: 0.87
EDNRA; 1μM tracer
  NanoBRET Fold Response: 0.99
TBXA2R; 0.1μM tracer
  NanoBRET Fold Response: 1.27
TBXA2R; 1μM tracer
  NanoBRET Fold Response: 0.99
FZD4; 0.1μM tracer
  NanoBRET Fold Response: 0.89
FZD4; 1μM tracer
  NanoBRET Fold Response: 1.08

## CC(C)N(CC[C@H](c1ccccc1)c1cc(CCNC(=O)CCOCCOCCOCCOCCNC(=O)CCc2ccc3n2[B-](F)(F)[N+]2=C(c4ccc[nH]4)C=CC2=C3)ccc1O)C(C)C [Tolterodine-2-NB590]
EDNRA; EDNRA, tracer 0.1μM
  NanoBRET Fold Response: 0.94
EDNRA; EDNRA, tracer 1μM
  NanoBRET Fold Response: 1.01
TBXA2R; TBXA2R, tracer 0.1μM
  NanoBRET Fold Response: 0.79
TBXA2R; TBXA2R, tracer 1μM
  NanoBRET Fold Response: 1.01
FZD4; FZD4, tracer 0.1μM
  NanoBRET Fold Response: 0.95
FZD4; FZD4, tracer 1μM
  NanoBRET Fold Response: 0.96

## CN(CCC=C1c2ccccc2CCc2ccccc21)C(=O)CCOCCOCCOCCOCCNC(=O)CCc1ccc2n1[B-](F)(F)[N+]1=C(c3ccc[nH]3)C=CC1=C2 [Amitriptyline-e-2-NB590]
EDNRA; tracer at 1μM
  NanoBRET Fold Response: 1.05
FZD4; tracer at 1μM
  NanoBRET Fold Response: 0.97
